Reference: patent US8883826B2, “Alkynyl derivatives as modulators of metabotropic glutamate receptors” (Addex Pharma SA, priority 2004, dated 2014)
“Also recorded” adds a separate entry of the source.

Assays:
mGluR5 = target: T1, mGluR5 (Rattus norvegicus, UniProt P31424); assay: mGluR5 binding assay ([3H]-MPEP radioligand competition); conditions: competition with 3 nM [3H]-MPEP, rat brain cortical membranes, 1 h at 4 °C; mean of at least three independent experiments in duplicate
T1 construct: tissue Charles River Laboratories; host or cells: rat brain cortex membranes (Sprague-Dawley)
T1 sequence (P31424 21-1203): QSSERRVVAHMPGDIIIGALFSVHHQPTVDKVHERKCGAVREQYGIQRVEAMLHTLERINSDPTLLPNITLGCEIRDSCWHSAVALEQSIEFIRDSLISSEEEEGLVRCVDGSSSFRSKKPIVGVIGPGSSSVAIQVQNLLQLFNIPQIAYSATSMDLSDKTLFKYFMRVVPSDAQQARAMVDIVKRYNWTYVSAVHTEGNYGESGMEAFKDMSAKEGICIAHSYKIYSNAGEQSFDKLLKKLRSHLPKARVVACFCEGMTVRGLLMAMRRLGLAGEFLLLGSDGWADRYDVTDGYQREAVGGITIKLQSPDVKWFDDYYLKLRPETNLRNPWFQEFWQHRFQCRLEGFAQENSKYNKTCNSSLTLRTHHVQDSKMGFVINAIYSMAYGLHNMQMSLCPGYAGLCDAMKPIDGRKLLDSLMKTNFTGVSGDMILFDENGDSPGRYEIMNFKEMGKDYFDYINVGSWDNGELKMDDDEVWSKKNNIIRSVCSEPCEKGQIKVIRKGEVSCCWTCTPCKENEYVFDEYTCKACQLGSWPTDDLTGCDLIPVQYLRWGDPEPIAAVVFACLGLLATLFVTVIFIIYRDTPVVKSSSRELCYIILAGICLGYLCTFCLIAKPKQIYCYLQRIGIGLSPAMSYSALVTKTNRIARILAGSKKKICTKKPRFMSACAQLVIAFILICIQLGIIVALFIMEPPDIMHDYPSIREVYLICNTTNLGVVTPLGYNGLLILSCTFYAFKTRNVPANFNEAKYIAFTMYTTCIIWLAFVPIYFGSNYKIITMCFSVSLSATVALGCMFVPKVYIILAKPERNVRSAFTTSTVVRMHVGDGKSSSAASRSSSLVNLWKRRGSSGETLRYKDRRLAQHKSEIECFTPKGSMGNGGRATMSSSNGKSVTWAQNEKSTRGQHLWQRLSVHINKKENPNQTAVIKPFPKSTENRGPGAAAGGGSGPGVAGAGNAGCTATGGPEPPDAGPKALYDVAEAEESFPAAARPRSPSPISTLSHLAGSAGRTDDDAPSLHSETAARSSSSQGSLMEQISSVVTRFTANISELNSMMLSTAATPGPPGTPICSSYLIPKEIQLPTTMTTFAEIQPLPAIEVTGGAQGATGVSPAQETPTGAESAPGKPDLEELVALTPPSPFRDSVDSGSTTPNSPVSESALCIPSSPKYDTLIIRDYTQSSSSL
Procedure, shortened: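 Rat cortical membranes (50 μg) were incubated 1 h at 4 °C with 3 nM [3H]-MPEP and compound (0.003 nM-30 μM, 8 points) in HEPES buffer pH 7.4 with Mg2+, Ca2+ and NaCl. 30 μM MPEP defined non-specific binding, and bound label was counted after filtration. IC50 came from non-linear regression, as the mean of ≥3 experiments run in duplicate.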

Male C57BL6/j mice = assay: Marble burying model of anxiety; type: in vivo, mouse; conditions: 50 mg/kg po, 60 minutes prior to test, n=10/group, t (1, 18)=3.92
Source text: Marble Burying Model of Anxiety
Marble burying behavior in mice is reduced by compounds which are efficacious anxiolytics in humans. Thus, marble burying in mice has been used as a model for the prediction of anxiolytic-like effects of compounds (Millan, M. J. et al., Neuropharmacology, 42:677-684 (2002)).
Selective negative allosteric modulators (allosteric antagonists) of the metabotropic glutamate receptor subtype 5 (mGluR5) have been shown previously to reduce marble burying in mice (Spooren, W. P. et al., Journal of Pharmacology and Experimental Therapeutics, 295:1267-1275 (2000)). […] Such compounds may be useful in the treatment of anxiety and related disorders.
The present studies were performed in accordance with the animal care and use policies of Addex Pharmaceuticals and the EEC directives on the protection of animals used for experimental and other scientific purposes (86/609/EEC and subsequent revisions). […]
The effect of compounds on marble burying in mice was tested. […] After removal of the mice from the test cages, the number of marbles buried was counted. […]
Statistical analyses were performed using GraphPad PRISM version 4.01 statistical software (GraphPad, San Diego, Calif., USA). Data were analyzed using one-way analysis of variance (ANOVA) followed by Bonferroni-corrected multiple comparisons, or t tests if only 2 groups were present. […]

Compound	melting point	IC50 (mGluR5)	marble burying in mice (number of marbles buried vs vehicle) (Male C57BL6/j mice)
CC(=O)Nc1cccc(C#CCCn2nc3ccccc3n2)n1 [Example 169, N-(6-(4-(2H-Benzo[d][1,2,3]triazol-2-yl)but-1-ynyl)pyridin-2-yl)acetamide]	93 to 94 °C	< 10 µM	
CCNc1cccc(C#CCCn2nc3ccccc3n2)n1 [Example 170, 6-(4-(2H-Benzo[d][1,2,3]triazol-2-yl)but-1-ynyl)-N-ethylpyridin-2-amine]	73 to 78 °C	< 10 µM	
Fc1ccc(-c2cn(CCC#Cc3ccccn3)nn2)cc1 [Example 179, 2-(4-(4-(4-Fluorophenyl)-1H-1,2,3-triazol-1-yl)but-1-ynyl)pyridine]	120 to 122 °C	< 0.5 µM	
O=c1c2ccccc2ccn1CCC#Cc1ccccn1 [Example 183, 2-(4-(Pyridin-2-yl)but-3-ynyl)isoquinolin-1(2H)-one]	85 to 90 °C	< 0.5 µM	
O=C(CCC#Cc1ccccn1)Nc1ccccc1F [Example 186, N-(2-Fluorophenyl)-5-(pyridin-2-yl)pent-4-ynamide]	82 to 84 °C	< 10 µM	
O=C(CCC#Cc1ccccn1)Nc1cccc(F)c1 [Example 187, N-(3-Fluorophenyl)-5-(pyridin-2-yl)pent-4-ynamide]	110 to 114 °C	< 10 µM	
Cc1cc(F)ccc1NC(=O)CCC#Cc1ccccn1 [Example 188, N-(4-Fluoro-2-methyl-phenyl)-5-(pyridin-2-yl)pent-4-ynamide]	110 to 114 °C	< 10 µM	
Cn1c(CCC#Cc2cccc(CF)n2)nc2ccccc21 [Example 190, 2-(4-(6-(Fluoromethyl)pyridin-2-yl)but-3-ynyl)-1-methyl-1H-benzo[d]imidazole]	95.3 to 96.3 °C	< 0.5 µM	
Cn1c(CCC#Cc2cccc(CF)n2)nc2c(F)cc(F)cc21 [Example 193, 4,6-Difluoro-2-(4-(6-(fluoromethyl)pyridin-2-yl)but-3-ynyl)-1-methyl-1H-benzo[d]imidazole]	103 to 104 °C	< 0.5 µM	
Cc1nc(C#CCCn2nc3ccccc3n2)sc1C [Example 222, 2-(4-(4,5-Dimethylthiazol-2-yl)but-3-ynyl)-2H-benzo[d][1,2,3]triazole]	96 to 98 °C	< 10 µM	
FCc1cccc(C#CCCc2cn3cc(F)ccc3n2)n1 [Example 223, 6-Fluoro-2-(4-(6-(fluoromethyl)pyridin-2-yl)but-3-ynyl)H-imidazo[1,2-a]pyridine]	140 to 141.8 °C	< 0.5 µM	
FCc1nc(C#CCCc2cn3cc(F)ccc3n2)cs1 [Example 224, 6-Fluoro-2-(4-(2-(fluoromethyl)thiazol-4-yl)but-3-ynyl)-imidazo[1,2-a]pyridine]	82 to 84 °C	< 0.05 µM	
FCc1cccc(C#CCCc2cn3cccc(OCc4ccccc4)c3n2)n1 [Example 226, 8-(Benzyloxy)-2-(4-(6-(fluoromethyl)pyridin-2-yl)but-3-ynyl)-imidazo[1,2-a]pyridine]	92 to 94 °C	< 10 µM	
Fc1cc(F)c2nc(CCC#Cc3ccccn3)cn2c1 [Example 228, 6,8-Difluoro-2-(4-(pyridin-2-yl)but-3-ynyl)-imidazo[1,2-a]pyridine]	130 to 131 °C	< 0.05 µM	
Fc1cccnc1C#CCCc1nc2ccccc2o1 [Example 230]	86 to 88 °C	< 10 µM	
Cc1nc(C#CCCc2nc3ccccc3o2)c[nH]1 [Example 231, 2-(4-(2-Methyl-1H-imidazol-4-yl)but-3-ynyl)benzo[d]oxazole]	152 to 154 °C	< 10 µM	
O=C(CCC#Cc1cccc(CF)n1)Nc1ccc(F)cc1 [Example 232, 5-(6-(Fluoromethyl)pyridin-2-yl)-N-(4-fluorophenyl)pent-4-ynamide]	110 °C	< 10 µM	
Cc1nc(C#CCCc2nc3ccccc3o2)cn1C [Example 233, 2-(4-(1,2-Dimethyl-1H-imidazol-4-yl)but-3-ynyl)benzo[d]oxazole]	117 to 119 °C	< 10 µM	
O=C1c2ccccc2CN1CCC#Cc1ccccn1 [Example 234, 2-(4-(Pyridin-2-yl)but-3-ynyl)isoindolin-1-one]	94 to 98 °C	< 10 µM	
FCc1cccc(C#CCCc2nc3ccccc3s2)n1 [Example 241, 2-(4-(6-(Fluoromethyl)pyridin-2-yl)but-3-ynyl)benzo[d]thiazole]	74 to 76 °C	< 0.05 µM	
O=C1c2ccccc2C(=O)N1CCCC#Cc1ccccn1 [Example 242, 2-(5-(Pyridin-2-yl)pent-4-ynyl)isoindoline-1,3-dione]	127 to 129 °C	< 10 µM	
O=C(CCC#Cc1ccccn1)Nc1ccc(Cl)cc1 [Example 244, N-(4-Chlorophenyl)-5-(pyridin-2-yl)pent-4-ynamide]	110 to 111 °C	< 10 µM	
O=C(CCC#Cc1ccccn1)Nc1cccc(Cl)c1 [Example 245, N-(3-Chlorophenyl)-5-(pyridin-2-yl)pent-4-ynamide]	167.8 to 168.8 °C	< 10 µM	
O=C(CCC#Cc1ccccn1)Nc1ccc(F)cc1F [Example 246, N-(2,4-Difluorophenyl)-5-(pyridin-2-yl)pent-4-ynamide]	132 to 133.2 °C	< 10 µM	
Fc1ccc(-c2cnn(CCC#Cc3ccccn3)n2)cc1 [Example 249, 2-(4-(4-(4-Fluorophenyl)-2H-1,2,3-triazol-2-yl)but-1-ynyl)pyridine]	83.5 to 84.5 °C	< 10 µM	
Clc1cccn2cc(CCC#Cc3ccccn3)nc12 [Example 255, 8-Chloro-2-(4-(pyridin-2-yl)but-3-ynyl)-imidazo[1,2-a]pyridine]	106 to 107 °C	< 0.05 µM	significantly attenuates marble burying; also recorded: buried significantly fewer marbles than vehicle-treated mice
